Legend:
CLP mice [1] = assay: Elevated plus maze test after sepsis; format: in vivo; conditions: levetiracetam vs placebo treated CLP mice
Experimental: Elevated plus maze test: Mice home cage was placed in the experimental room 45 minutes prior any handling. Mice were placed in cross shaped 40 cm maze consisting in 2 open arms without walls and 2 closed arms with 30 cm opaque walls. Mice were tracked with ethovision XT during 5 minutes trials. The maximum velocity, total distance walked, number of entries in an open arm, and amount of time spent in an opened arm or in a closed arm were recorded. Datas are presented as Mean±SEM.
FIG. 2: Innate anxiety behavior and depressive phenotype was investigated with the elevated plus maze and splash test.

CLP mice [2] = assay: Novel object location/recognition tests after sepsis; format: in vivo; conditions: septic mice, treated or not
Experimental: (§1) Comportemental tests: Every comportemental tests were started 15 days after sepsis induction. The experimentator was blinded to the experimental group.
Novel Object Recognition Test: Tests comprise three phases: habituation, familiarization and test phase. During the first 20 minutes animals were placed in a transparent arena under a 100 lux light that had three compartments separated with one-holed plexiglass walls. Two objects were used (a plastic power plug and a brass bolt). During the next 10 minutes two similar objects (A,A) were placed in the lateral compartments. We considered that mice were exploring the objects when they were climbing or explore it with their nose. Immediately after mice were replaced in the center of arena and two new objects (A,B) were placed in the compartments. The ratio of time spent exploring objects A and ratio of time exploring object AB were compared.
(§2) Figures J-M. Morris water Maze test (MWM) and Novel Object Location/Recognition tests.

[3] = tested on: primary murine microglial cells; assay: Cytokine transcription in LPS-activated primary microglial cells; format: cell-based, C57/B16 mice; conditions: for increase of TNFalpha gene expression: p<0.0001; for IL6 gene expression: 24 hours
Text: NO: 53) and anti-sense primer:[…] NO: 54). […] ID NO: 55) and anti-sense primer […] NO: 56). […] NO: 57) and anti-sense primer:[…] NO: 58).

[4] = tested on: pro- and anti-inflammatory cytokine levels in brain parenchyma; assay: Cytokine multiplex in brain parenchyma after sepsis; format: in vivo, mice; conditions: 24 hours after sepsis induction
Experimental: Cytokine multiplex: Brain samples were weighed and unfrosted in 100 μl of extraction buffer (PBS 1×, complete protease inhibitor, sigma-aldrich, triton 0.1%) processed in 2 ml Lysing Matrix A tubes with FastPrep-24 (MP biomedicals, Germany). Tubes were centrifuged at 20000 g at 4° C. and supernatant was collected and protein concentration was determined with light absorbance at 280 nm using a Nanodrop Lite Spectrophotometer (Thermo Scientific). […] Cytokines were measured using a Bio-Plex System and Mouse Cytokine Standard 23-Plex Group 1 kit following manufacturer's recommendations. Raw datas were analyzed by dividing the concentration of cytokine with protein concentration in lyzate and weight of sample measured on precision balance. Then every cytokine concentrations are presented as a ratio compared to the untreated sepsis group.

CLP mice [5] = assay: Open field test after sepsis; format: in vivo; conditions: septic mice, 10 days after sepsis, vs saline
Experimental: […] The experimentator was blinded to the experimental group.
Open Field Mice were placed 45 minutes before being held in the experimental room. Single mice were then placed in a squared 40 cm box in an experimental room and captured with a camera during 10 minutes. Mice were tracked using Ethovision XT and their tail, nose and barycenter was marked. The total length walked, the ratio of time spent moving/non moving, the maximum velocity and the mean distance from barycenter to arena's center were recorded. Datas are presented as Mean±SEM.
Datas are presented as mean±SEM. Sepsis presented a persisting effect on locomotor functions:sepsis lowered the distance traveled (E, p<0.05), increased the time spent not moving (F, p<0.05) and the mean distance to center (G, p<0.05) compared to control mice.

CLP mice [6] = assay: Fear conditioning test after sepsis; format: in vivo
Experimental: as §1
Fear conditioning. Mice underwent the classical fear conditioning test with a cued stimulus (auditory tone) and an uncued stimulus (electric shock). During two consecutive conditioning trials, 2 minutes resting followed by a 48s tone ([…] tone, 60 db) and 5 electrical footshocks of 2 joules during 2 seconds. Twenty four hours after conditioning, mice underwent the fear memory recall after exposition to a contextual stimulus (shock cage in the same configuration without auditory tone) or an auditory stimulus (Auditory tone in a different cage with a vanilla artificial odor). Freezing was evaluated for 2 seconds every 8 seconds and was defined as the absence of movement of the mouse with tail erection. Percentage of 10 seconds period freezing was reported to the total amount of freezing.

Caspase 3 = Caspase 3 cleavage and apoptotic cell count in brain after sepsis; format: in vivo; conditions: septic mice, Western blot cleaved caspase 3 vs procaspase 3, whole brain
Text: A—Western Blot from cleaved caspase 3 from macerated brain parenchyma. B—Mean±SEM of ratios between intensity of cleaved caspase 3 vs. procaspase 3. […] D-G Cell count for late and early stage of apoptosis. WM Whitte matter, DG, Dentate Gyms, CC3 Cleaved Caspase 3.

[7] = cited from earlier work
[8] = tested on: peripheral nervous system; conditions: septic rats, single dose of 300, 600 or 1200 mg/kg one hour after surgery; cited from earlier work
CLP mice [9] = assay: Sepsis score after CLP; format: in vivo, C57Bl/6 mice; conditions: evaluated every 12 hours
Experimental: Analgesia and rehydration of mice were performed with buprenorphine (0.1 mg/Kg, Buprecare, Axience, Pantin, France) every 12 hours until complete recovery. […] Clinical scoring: Sepsis severity was evaluated twice a day until day 4, or normalization of «sepsis score», a previously described score that ranges from […]. This score evaluates markers of local (abdominal spasm) and systemic reaction to sepsis (rectal temperature, fur erection, abnormal breathing), behavioural alterations (feces cleaning, presence of periocular dried eyedrop, incomplete palpebral opening, spontaneous activity in the cage, the escape attempt after tail grabbing) and signs of muscular weakness (grip strength, body tone, difficulty to walk). Each item was scored 0 or 1, with a total score rang from 0 (normal) to 12 (highly severe). For ethical reason, mice with a sepsis score ≥8 and a temperature ≤34.5° C. were euthanized as they were considered to almost certainly die within the 12 hours.
FIG. 1C. Sepsis score was evaluated every 12 hours (general state criteria, temperature, fur erection, respiratory rate, sickness behaviour, spontaneous activity in the home cage, lacrimation, palpebral closure, feces toilet, locomotor criteria, grip strength, difficulties walking, local reaction, abdominal wall contraction, axial body tone). Datas are presented as mean±SEM.

CLP mice [10] = assay: Morris water maze after sepsis; format: in vivo
Text: as §1
Morris Water Maze was realized as described by Vorhees et al. Nature Protocols 2006. It consisted in a phase of spatial learning and a probe trial. During the first phase the animal learns spatial position of a platform (11 cm diameter) hidden in a swimming pool (120 cm diameter) with opaque water relatively to cues placed on the water tank and in the experimental room. The animal is released in a random quadrant 4 times per day during 7 days. The distance (cm) before reaching the platform, the latency (s) and the proportion of time spent in each quadrant is measured. After each day the learning curve of mice reaching the platform is drawn. If this curve reached a plateau, the probe trial is realized the next day. Probe trial consists in a recall of the spatial reference memory.
as §2

[11] = tested on: rats treated to model traumatic brain injury; conditions: 54 mg/kg or 170 mg/kg single perfusion 15 minutes after injury; cited from earlier work

Q: Which “innate anxiety (elevated plus maze)” value (CLP mice [1]) does the source give for `CC[C@@H](C(N)=O)N1CCCC1=O` (single isomer, unassigned) [levetiracetam] here?
A: No difference

Q: What about the “time on novel vs familiar object” value (CLP mice [2]) of the same molecule?
A: same amount of time

Q: What about the “increase of TNFalpha gene expression” value ([3]; high LPS (10 ng/mL), high dose levetiracetam (100 micrograms/mL), [0.86-0.30]) of the same molecule?
A: 0.58

Q: And the “decrease of TNFalpha gene expression” value ([3]; high LPS (10 ng/mL), low dose levetiracetam (10 micrograms/mL), [0.10-0.66], p<0.01)?
A: 0.38

Q: What about the IL6 gene expression ([3]; high-dose LPS (10 ng/mL), high-dose levetiracetam (100 micrograms/mL), [0.25-0.97], p<0.001) of the same molecule?
A: 0.61 fold

Q: And the IL1 beta expression ([3]; in vitro, activated microglial cell or not)?
A: No effect

Q: And the “increase of TNFalpha gene expression” value ([3]; low LPS (1 ng/mL), low levetiracetam (10 micrograms/mL), [0.82-0.26])?
A: 0.53

Q: What about the IL6 gene expression ([3]; low-dose LPS challenge (1 ng/mL)) of the same molecule?
A: did not modify

Q: What about the “TNF alpha in brain parenchyma (multiplex)” value ([4]; sepsis group treated) of the same molecule?
A: could not be detected

Q: And the “IL4 concentration in brain parenchyma (multiplex)” value ([4]; vs septic mice receiving saline)?
A: increased

Q: And the “open field distance traveled (sepsis-associated lowering)” value (CLP mice [5])?
A: did not influenced

Q: And the “open field time spent not moving” value (CLP mice [5])?
A: did not influenced

Q: What about the “open field mean distance to center” value (CLP mice [5]; p=0.043 Mann-Whitney) of the same molecule?
A: decreased

Q: And the “motor response to electric shock during conditioning period” value (CLP mice [6]; between groups)?
A: did not differ

Q: What about the auditory freezing time (CLP mice [6]; levetiracetam treated vs placebo treated CLP mice, p=0,024) of the same molecule?
A: lower

Q: What about the “cleavage of Caspase 3 in the brain” value (Caspase 3) of the same molecule?
A: reduces

Q: What about the solubility in acetonitrile ([7]; acetonitrile) of the same molecule?
A: 5.7 g/100 mL

Q: And the solubility in chloroform ([7]; chloroform)?
A: 65.3 g/100 mL

Q: What about the solubility in ethanol ([7]; ethanol) of the same molecule?
A: 16.5 g/100 mL

Q: What about the solubility in methanol ([7]; methanol) of the same molecule?
A: 53.6 g/100 mL

Q: What about the solubility in n-hexane ([7]; n-hexane) of the same molecule?
A: practically insoluble

Q: And the solubility in water ([7]; water)?
A: 104.0 g/100 mL

Q: What about the “effects on the peripheral nervous system” value [8] of the same molecule?
A: broad spectrum of protective and restorative effects

Q: And the “sepsis score vs placebo” value (CLP mice [9])?
A: did not differ

Q: And the “Morris water maze learning to locate the platform (AUC of learning curve)” value (CLP mice [10]; septic mice)?
A: did not present an effect

Q: And the “Morris water maze test day time in platform quadrant” value (CLP mice [10]; test day (probe trial), all groups)?
A: same amount of time

Q: What about the cognitive outcome [11] of the same molecule?
A: improved
